Target: T1, Poly (ADP-ribose) polymerase-1 (PARP-1) (Homo sapiens, UniProt P09874)
T1 construct: gene PARP1
Assay: radioligand saturation binding in PC-3 tumor xenografts

T1 sequence (P09874 2-1014): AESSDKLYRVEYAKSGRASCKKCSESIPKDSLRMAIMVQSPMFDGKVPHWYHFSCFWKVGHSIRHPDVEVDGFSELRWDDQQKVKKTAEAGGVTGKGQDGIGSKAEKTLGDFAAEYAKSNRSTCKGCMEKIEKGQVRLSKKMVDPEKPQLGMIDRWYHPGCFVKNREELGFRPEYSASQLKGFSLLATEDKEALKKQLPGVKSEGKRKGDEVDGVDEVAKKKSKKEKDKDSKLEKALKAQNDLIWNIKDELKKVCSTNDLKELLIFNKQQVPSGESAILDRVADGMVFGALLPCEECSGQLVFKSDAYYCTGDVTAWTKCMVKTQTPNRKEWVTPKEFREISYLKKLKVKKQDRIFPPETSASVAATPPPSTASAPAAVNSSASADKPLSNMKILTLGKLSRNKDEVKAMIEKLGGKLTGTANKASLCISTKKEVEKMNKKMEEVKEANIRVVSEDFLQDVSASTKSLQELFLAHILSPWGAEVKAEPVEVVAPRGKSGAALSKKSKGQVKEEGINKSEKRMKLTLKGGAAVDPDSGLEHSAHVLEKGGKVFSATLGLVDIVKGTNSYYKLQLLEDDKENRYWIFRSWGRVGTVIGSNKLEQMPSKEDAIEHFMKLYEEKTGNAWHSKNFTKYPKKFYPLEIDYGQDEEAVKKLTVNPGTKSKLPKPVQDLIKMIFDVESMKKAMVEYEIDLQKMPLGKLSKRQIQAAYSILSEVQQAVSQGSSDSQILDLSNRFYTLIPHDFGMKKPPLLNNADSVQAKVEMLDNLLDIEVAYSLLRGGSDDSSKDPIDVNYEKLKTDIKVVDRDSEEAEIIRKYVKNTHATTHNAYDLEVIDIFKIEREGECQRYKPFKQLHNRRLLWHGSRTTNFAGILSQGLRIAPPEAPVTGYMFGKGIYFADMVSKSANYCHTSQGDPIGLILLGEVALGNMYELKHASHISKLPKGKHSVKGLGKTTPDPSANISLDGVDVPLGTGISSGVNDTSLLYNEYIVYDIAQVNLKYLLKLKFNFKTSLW

Kd: 0.58 ± 0.25 nM
Substance: [^77Br]Br-WC-DZ
